20 compounds from patent US7157078B2, “Devices and methods for eliminating termite colonies” (The University of Florida Research Foundation, Inc., priority 2001, dated 2007) can be followed below.

Structures are written as SMILES.

The subject of test [1] is termites from the genus/specie Reticulitermes flavipes or Coptotermes formosanus. The test can be described thus: Termiticide activity (Reference Example 3). The class given is in vivo. As to conditions: 20 termites per well; for DTD50 (number of days until 50% death): 0.5% compound on Whatman #1 filter paper, triplicate; for termite death (printed in DTD50 column): 0.5% compound on filter paper. How it is done:
The tests, run in triplicate, are set up in three wells of a 6-well polystyrene microtiter plate (3 wells are empty). Four circles of either 3.2 cm Whatman #1 filter paper (cellulose) for the food controls and tests on compounds, or 3.2 cm Whatman GF/C glass microfibre filters (borosilicate glass) for the no-food controls are stacked in each well. For the food controls, 600 microliters of water are added to each wen. For the no-food controls 1200 microliters of water are added to those wells. If the test compounds are water soluble, they are added to the wells in 600 microliters of water to deliver 0.5% compound. Water insoluble test compounds are added to the wells in a solvent in which they are soluble to deliver 0.5% compound, the solvent is evaporated, and 600 microliters of water added per well.
Termiticidal activity for a compound is measured using termites from the genus/specie Reticulitermes flavipes or Coptotermes formosanus. The termites are added in groups of 20 per well. Every 34 days the termites are counted. The number of days until 50% death (DTD50) and 100% death for termites is determined. These values for termites in the wells containing test compounds are compared to the food and no-food controls to determine which compounds display termiticidal activity.
Various compounds were analyzed by the method of Reference Example 3.

A further test concerns termites. The test can be described thus: Termiticide preference test (Reference Example 4). The class given is in vivo. To be noted: 100 termites per dish, about 7 days. The method, then: The test is performed in 100 millimeter Petri dishes into which 20 grams of washed sand and 2 milliliters of water are distributed. Six circles (three plain and thee treated with the compound of interest) of Whatman #1 filter paper (15 millimeters) are used as food. The treated circles are prepared by pipetting a small volume (approximately 25 microliters) of a solution of the compound in an appropriate solvent onto the filter paper circles, and then evaporating the solvent.
The filter paper circles are arranged in the dish in two rows using an alternating pattern of treated and untreated. One hundred termites are then added to the dish. The test is run for about 7 days to determine if any eating preference is seen between the treated and untreated filter paper circles.

`Cc1nc2cc(C)c(C)cc2[nH]1` [CAS No. 3363-56-2]: the “DTD50 (number of days until 50% death)” value in test [1] came to 63 days.
Still for that read-out and setting: the same measure for `CC(C)NCC(O)COc1cccc2ccccc12` (stereo not drawn) [CAS No. 4199-10-4]: 77 days; for `O=c1c2ccccc2nnn1O` [CAS No. 28230-32-2]: 80 days; for `COC(=O)C[S+]([O-])c1ccccc1` (stereo not drawn) [CAS No. 14090-83-6]: 35 days.
For `OCC1OC(O)(C(F)(F)F)C(O)C(O)C1O` (stereo not drawn), the “DTD50 (number of days until 50% death)” value in test [1] was 41 days.
Consider `Cc1cc(C(C)(C)c2cc(C)c(O)c(C)c2)cc(C)c1O` [CAS No. 5613-46-7], for which, in test [1] (at day 73), the “termite death (printed in DTD50 column)” value is reported as 42% atday 73.
Turning to `NC1CCN(Cc2ccccc2)CC1` [CAS No. 50541-93-0], the “DTD50 (number of days until 50% death)” value in test [1] is listed as 59 days.
On to `O=S(=O)(NCCc1c[nH]cn1)c1ccccc1` [CAS No. 195052-64-3], for which the “termite death (printed in DTD50 column)” value in test [1] (by day 53) amounted to 48%by day53.
With `OCC1OC(F)C(F)C(O)C1O` (stereo not drawn), the “DTD50 (number of days until 50% death)” value in test [1] was 33 days.
Still for that read-out and setting: the same measure for `OC[C@H]1O[C@@H](Oc2ccccc2)[C@H](O)[C@@H](O)[C@@H]1O` [CAS No. 1464-44-4, Phenyl-beta-D-glycoside]: 15 days.
Take `CC(C)(C1CCC(O)CC1)C1CCC(O)CC1` (stereo not drawn) [CAS No. 80-04-6]: the “DTD50 (number of days until 50% death)” value in test [1] was determined as 62 days. The “preference test result (treated vs untreated filter paper circles)” value in the test with termites is given as “passes the preference test”.
For the compound `COc1ccc(NC(=O)CC(C)=O)cc1` [CAS No. 5437-98-9], the “DTD50 (number of days until 50% death)” value in test [1] is reported as 31 days.
On the same count and under the same terms, the same measure for `O=[N+]([O-])c1ccc(OC2OC(CO)C(OC3OC(CO)C(OC4OC(CO)C(O)C(O)C4O)C(O)C3O)C(O)C2F)c([N+](=O)[O-])c1` (stereo not drawn) [CAS No. 213193-76-1]: 60 days.
The same measure, in the same setting: in the case of `CC(=O)c1ccc(-n2ccnc2)cc1` [CAS No. 10041-06-2] it was 35 days.
On the same count and under the same terms, the same measure for `CC(C)(c1ccc(O)cc1)c1ccc(O)cc1` [CAS No. 80-05-7]: 42 days.
As to `OCC1OC(OC2C(CO)OC(Oc3ccccc3)C(O)C2O)C(O)C(O)C1O` (stereo not drawn), in test [1], the “DTD50 (number of days until 50% death)” value is reported as 27 days.
Still for that read-out and setting: in the case of `O=[N+]([O-])c1ccc(OC2OC(CO)C(OC3OC(CO)C(O)C(O)C3O)C(O)C2F)c([N+](=O)[O-])c1` (stereo not drawn) [CAS No. 154862-23-4] it was 66 days; in that of `CC(=O)Oc1ccc(C(C)(C)c2ccc(OC(C)=O)cc2)cc1` [CAS No. 10192-62-8], 70 days; in that of `CC1(C)CC(O)CC(C)(C)N1O` [CAS No. 2226-96-2], 32 days.
For the compound `O=C(Nc1ccccc1)c1cccnc1` [CAS No. 1752-96-1], the “DTD50 (number of days until 50% death)” value in test [1] was found to be 80 days.
